Measured values from US10561739B2, “Targeted pyrrolobenzodiazapine conjugates” (priority 2010, dated 2020).

Key:
Format in all cases: cell-based
Caki-1 cells = experiment: Free drug 48 hour Cell Titer Glo cytotoxicity, Caki-1; settings: Homo sapiens, Table 3, 48 hours, read-out: IC50 Summary for Free Drugs, Caki-1
Procedure: (§1) Referring to the following Table 3, the activities of compounds 23, 25, are compared to that of compound 11 on 786-O, Caki-1, MCF-7, HL-60, THP-1, HEL, and TF1 cells. Cells were plated in 150 μL growth media per well into black-sided clear-bottom 96-well plates (Costar, Corning) and allowed to settle for 1 hour in the biological cabinet before placing in the incubator at 37° C., 5% CO2. The following day, 4× concentration of drug stocks were prepared, and then titrated as 10-fold serial dilutions producing 8-point dose curves and added at 50 μl per well in duplicate. Cells were then incubated for 48 hours at 37° C., 5% CO2. Cytotoxicity was measure by incubating with 100 μL Cell Titer Glo (Promega) solution for 1 hour, and then luminescence was measured on a Fusion HT plate reader (Perkin Elmer). Data was processed with Excel (Microsoft) and GraphPad (Prism) to produce dose response curves and IC50 values were generated and data collected.

HL-60 cells = experiment: Free drug 48 hour Cell Titer Glo cytotoxicity, HL-60; settings: Homo sapiens, Table 3, 48 hours, read-out: IC50 Summary for Free Drugs, HL-60
Procedure: as §1

TF1a cells = experiment: Free drug 48 hour Cell Titer Glo cytotoxicity, TF1a; settings: TF-1a, Table 3, 48 hours, read-out: IC50 Summary for Free Drugs, TF1a
Procedure: as §1

MCF-7 cells [1] = experiment: Free drug 48 hour Cell Titer Glo cytotoxicity, MCF-7; settings: Homo sapiens, MCF7, Table 3, 48 hours, read-out: IC50 Summary for Free Drugs, MCF-7
Procedure: as §1

HEL cells = experiment: Free drug 48 hour Cell Titer Glo cytotoxicity, HEL; settings: Homo sapiens, Table 3, 48 hours, read-out: IC50 Summary for Free Drugs, HEL
Procedure: as §1

THP-1 cells = experiment: Free drug 48 hour Cell Titer Glo cytotoxicity, THP-1; settings: Homo sapiens, Table 3, 48 hours, read-out: IC50 Summary for Free Drugs, THP-1
Procedure: as §1

786-O cells = experiment: Free drug 48 hour Cell Titer Glo cytotoxicity, 786-O; settings: Homo sapiens, 786-0, Table 3, 48 hours, read-out: IC50 Summary for Free Drugs, 786-O
Procedure: as §1

MCF-7 cells [2] = experiment: Free drug cytotoxicity assay, MCF-7 (Table 2); settings: Homo sapiens
Procedure: (§2) For a 96-hour assay, cells cultured in log-phase growth were seeded for 24 h in 96-well plates containing 150 μL RPMI 1640 supplemented with 20% FBS. Serial dilutions of test article (i.e., free drug) in cell culture media were prepared at 4× working concentration; 50 μL of each dilution was added to the 96-well plates. Following addition of test article, the cells were incubated with test articles for 4 days at 37° C. Resazurin was then added to each well to achieve a 50 μM final concentration, and the plates were incubated for an additional 4 h at 37° C. The plates were then read for the extent of dye reduction on a Fusion HT plate reader (Packard Instruments, Meridien, Conn., USA) with excitation and emission wavelengths of 530 and 590 nm, respectively. The IC50 value, determined in triplicate, is defined here as the concentration that results in a 50% reduction in cell growth relative to untreated controls.
Referring to the following Table 2, the activity of compounds 28, 30 and 32 is shown on L428, 786-O, HEL, HL-60 and MCF-7 cells, as well as the activity for compound 19 on MCF-7 cells.

[3] = test system: K562 human chronic myeloid leukaemia cells; experiment: K562 assay (MTT cytotoxicity); settings: drug incubation 1 hour or 96 hours
Procedure: K562 human chronic myeloid leukaemia cells were maintained in RPM1 1640 medium supplemented with 10% fetal calf serum and 2 mM glutamine at 37° C. in a humidified atmosphere containing 5% CO2 and were incubated with a specified dose of drug for 1 hour or 96 hours at 37° C. in the dark. The incubation was terminated by centrifugation (5 min, 300 g) and the cells were washed once with drug-free medium. Following the appropriate drug treatment, the cells were transferred to 96-well microtiter plates (10^4 cells per well, 8 wells per sample). Plates were then kept in the dark at 37° C. in a humidified atmosphere containing 5% CO2. The assay is based on the ability of viable cells to reduce a yellow soluble tetrazolium salt, 3-(4,5-dimethylthiazol-2-yl)-2,5-diphenyl-2H-tetrazolium bromide (MTT, Aldrich-Sigma), to an insoluble purple formazan precipitate. Following incubation of the plates for 4 days (to allow control cells to increase in number by approximately 10 fold), 20 μL of MTT solution (5 mg/mL in phosphate-buffered saline) was added to each well and the plates further incubated for 5 h. The plates were then centrifuged for 5 min at 300 g and the bulk of the medium pipetted from the cell pellet leaving 10-20 μL per well. […] The optical density was then read at a wavelength of 550 nm on a Titertek Multiscan ELISA plate reader, and a dose-response curve was constructed. […]

[4] = test system: L428 Hodgkin lymphoma cell line (CD70+/30+); experiment: ADC 96-hour resazurin cytotoxicity assay, L428
Procedure: (§3) The in vitro cytotoxic activity of the selected antibody drug conjugates was assessed using a resazurin (Sigma, St. Louis, Mo., USA) reduction assay (reference: Doronina et al., Nature Biotechnology, 2003, 21, 778-784). The antibody drug conjugates were prepared as described above in Example 13.
as §2, with “For the” for “For a”, “of ADC” for “of test article (i.e., free drug)”, “of ADC,” for “of test article,”

[5] = test system: 786-O renal cell carcinoma cell line (CD70+); experiment: ADC 96-hour resazurin cytotoxicity assay, 786-O
Procedure: as §3
as §2, with “For the” for “For a”, “of ADC” for “of test article (i.e., free drug)”, “of ADC,” for “of test article,”

control (AML cell line) = experiment: ADC 96-hour resazurin cytotoxicity assay, control line of Table 7
Procedure: as §3
as §2, with “For the” for “For a”, “of ADC” for “of test article (i.e., free drug)”, “of ADC,” for “of test article,”
Referring to Table 7, the in vitro cytotoxicity of ADCs containing PBD dimers on CD70^+ cell lines using the 96 hour assay is shown. […]

COc1ccc(C2=CN3C(=O)c4cc(OC)c(OCCCCCOc5cc6c(cc5OC)C(=O)N5C=C(c7ccc(O)cc7)C[C@H]5C=N6)cc4N=C[C@@H]3C2)cc1 [Compound 23, (S)-2-(4-hydroxyphenyl)-7-methoxy-8-(5-((S)-7-methoxy-2-(4-methoxyphenyl)-5-oxo-5,11a-dihydro-1H-pyrrolo[2,1-c][1,4]benzodiazepin-8-yloxy)pentyloxy)-1H-pyrrolo[2,1-c][1,4]benzodiazepine-5(11aH)-one]
IC50 (Caki-1 cells): 0.02 nM | IC50 (HL-60 cells): 0.005 nM | IC50 (TF1a cells): 0.2 nM | IC50 (MCF-7 cells [1]): 0.7 nM | IC50 (HEL cells): 0.009 nM | IC50 (THP-1 cells): 0.4 nM | IC50 (786-O cells): 0.06 nM

COc1cc2c(cc1OCCCCCOc1cc3c(cc1OC)C(=O)N1C=C(c4cccc(N)c4)C[C@H]1C=N3)N=C[C@@H]1CC(c3ccc(N4CCN(C)CC4)cc3)=CN1C2=O [Compound 30, (S)-2-(3-aminophenyl)-7-methoxy-8-(5-((S)-7-methoxy-2-(4-(4-methylpiperazin-1-yl)phenyl)-5-oxo-5,11a-dihydro-H-pyrrolo[2,1-c][1,4]benzodiazepin-8-yloxy)pentyloxy)-1H-pyrrolo[2,1-c][1,4]benzodiazepine-5(11aH)-one]
IC50 (MCF-7 cells [2]; MCF7, Table 2, read-out: IC50 Summary for Free Drugs, MCF-7): 0.01 nM

COc1ccc(C2=CN3C(=O)c4cc(OC)c(OCCCCCOc5cc6c(cc5OC)C(=O)N5C=C(c7ccc(C=O)cc7)C[C@H]5C=N6)cc4N=C[C@@H]3C2)cc1 [Compound 25, 4-((S)-7-methoxy-8-(5-((S)-7-methoxy-2-(4-methoxyphenyl)-5-oxo-5,11a-dihydro-1H-pyrrolo[2,1-c][1,4]benzodiazepin-8-yloxy)pentyloxy)-5-oxo-5,11a-dihydro-1H-pyrrolo[2,1-c][1,4]benzodiazepine-2-yl)benzaldehyde]
IC50 (Caki-1 cells): 0.06 nM | IC50 (HL-60 cells): 0.01 nM | IC50 (TF1a cells): 0.9 nM | IC50 (MCF-7 cells [1]): 0.8 nM | IC50 (HEL cells): 0.02 nM | IC50 (THP-1 cells): 0.9 nM | IC50 (786-O cells): 0.09 nM

COc1ccc(C2=CN3C(=O)c4cc(OC)c(OCCCCCOc5cc6c(cc5OC)C(=O)N5C=C(c7ccc(N)cc7)C[C@H]5C=N6)cc4N=C[C@@H]3C2)cc1 [Compound 13, (S)-2-(4-aminophenyl)-7-methoxy-8-(5-((S)-7-methoxy-2-(4-methoxyphenyl)-5-oxo-5,11a-dihydro-1H-pyrrolo[2,1-c][1,4]benzodiazepine-8-yloxy)pentyloxy)-H-pyrrolo[2,1-c][1,4]benzodiazepine-5(11aH)-one]
IC50 [3]: 0.03 nM

COc1ccc(C2=CN3C(=O)c4cc(OC)c(OCCCOc5cc6c(cc5OC)C(=O)N5C=C(c7ccc(CN)cc7)C[C@H]5C=N6)cc4N=C[C@@H]3C2)cc1 [Compound 32, (S)-2-(4-(aminomethyl)phenyl)-7-methoxy-8-(3-((S)-7-methoxy-2-(4-methoxyphenyl)-5-oxo-5,11a-dihydro-1H-pyrrolo[2,1-c][1,4]benzodiazepine-8-yloxy)propyloxy)-1H-pyrrolo[2,1-c][1,4]benzodiazepine-5(11aH)-one]
IC50 (MCF-7 cells [2]; MCF7, read-out: IC50 Summary for Free Drugs, MCF-7): 1 nM

B1: h1F6-44 (3.5 dr/mAb) (conjugate, chains of the INN, looked up)
VH: QVQLVQSGAEVKKPGASVKVSCKASGYTFTNYGMNWVRQAPGQGLKWMGWINTYTGEPTYADAFKGRVTMTRDTSISTAYMELSRLRSDDTAVYYCARDYGDYGMDYWGQGTTVTVSS
VL: DIVMTQSPDSLAVSLGERATINCRASKSVSTSGYSFMHWYQQKPGQPPKLLIYLASNLESGVPDRFSGSGSGTDFTLTISSLQAEDVAVYYCQHSREVPWTFGQGTKVEIK
modifications: drug-linker 44 conjugate, 3.5 drugs/mAb
In vitro cytotoxic activity (IC50), L428 [4]: 2.142 µg/mL | In vitro cytotoxic activity (IC50), 786-O [5]: 1.124 µg/mL

B2: h1F6- 43(4 dr/rnAb) (conjugate, chains of the INN, looked up)
VH: B1 VH
VL: B1 VL
modifications: drug-linker 43, 4 drugs/mAb
In vitro cytotoxic activity (IC50), L428 [4]: 0.404 µg/mL | In vitro cytotoxic activity (IC50), 786O [5]: 0.011 µg/mL | In vitro cytotoxic activity (IC50), control (control (AML cell line)): 1.205 µg/mL

B3: h1F6 54 (4 dr/rnAb) (conjugate, chains of the INN, looked up)
VH: B1 VH
VL: B1 VL
modifications: drug-linker 54, 4 drugs/mAb
In vitro cytotoxic activity (IC50), L428 [4]: No effect | In vitro cytotoxic activity (IC50), 786O [5]: No effect | In vitro cytotoxic activity (IC50), control (control (AML cell line)): No effect
